{"source": "patent US12275725B2", "about": "“Inhibitors of the notch transcriptional activation complex and methods for use of the same” (University of Miami, priority 2019, dated 2025)", "key": {"[1]": {"assay": "GSH ethyl ester conjugation / parent remaining in human liver microsomes", "assay_type": "in vitro ADME", "details": "for Percentage (%) Parent Remaining in HLM: reacted with GSH"}, "[2]": {"assay": "Pharmacokinetic study in mouse plasma", "assay_type": "in vivo", "details": "iv, i.v. 10 mg/kg"}, "[3]": {"target": "T1, Notch transcriptional activation complex (NTC) (Homo sapiens, UniProt P46531+Q06330)", "T1 construct": "made in house; host or cells: SF21 insect cells (baculovirus)", "T1 sequence (P46531 1754-2555 limits assumed)": "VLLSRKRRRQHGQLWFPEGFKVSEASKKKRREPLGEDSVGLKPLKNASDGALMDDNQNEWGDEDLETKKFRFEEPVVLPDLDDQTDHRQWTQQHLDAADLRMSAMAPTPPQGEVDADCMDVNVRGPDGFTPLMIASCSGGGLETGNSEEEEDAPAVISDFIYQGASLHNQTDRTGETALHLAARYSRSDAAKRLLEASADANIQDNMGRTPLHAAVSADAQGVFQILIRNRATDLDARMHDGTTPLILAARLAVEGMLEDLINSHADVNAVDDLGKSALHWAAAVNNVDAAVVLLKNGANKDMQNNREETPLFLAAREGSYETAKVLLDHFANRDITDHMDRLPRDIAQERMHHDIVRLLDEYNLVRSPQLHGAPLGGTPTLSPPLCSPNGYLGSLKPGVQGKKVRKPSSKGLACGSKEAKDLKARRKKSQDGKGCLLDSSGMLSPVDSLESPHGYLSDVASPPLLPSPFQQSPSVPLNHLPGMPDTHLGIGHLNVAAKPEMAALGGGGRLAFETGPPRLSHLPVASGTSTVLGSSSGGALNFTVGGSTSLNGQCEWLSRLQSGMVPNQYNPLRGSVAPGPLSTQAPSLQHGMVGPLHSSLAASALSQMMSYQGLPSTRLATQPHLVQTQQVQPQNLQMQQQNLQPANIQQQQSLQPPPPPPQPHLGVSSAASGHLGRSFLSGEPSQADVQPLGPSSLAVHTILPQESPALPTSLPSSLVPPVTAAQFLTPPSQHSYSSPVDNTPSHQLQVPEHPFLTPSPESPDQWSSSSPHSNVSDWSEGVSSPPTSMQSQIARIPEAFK", "T1 sequence (Q06330 whole entry)": "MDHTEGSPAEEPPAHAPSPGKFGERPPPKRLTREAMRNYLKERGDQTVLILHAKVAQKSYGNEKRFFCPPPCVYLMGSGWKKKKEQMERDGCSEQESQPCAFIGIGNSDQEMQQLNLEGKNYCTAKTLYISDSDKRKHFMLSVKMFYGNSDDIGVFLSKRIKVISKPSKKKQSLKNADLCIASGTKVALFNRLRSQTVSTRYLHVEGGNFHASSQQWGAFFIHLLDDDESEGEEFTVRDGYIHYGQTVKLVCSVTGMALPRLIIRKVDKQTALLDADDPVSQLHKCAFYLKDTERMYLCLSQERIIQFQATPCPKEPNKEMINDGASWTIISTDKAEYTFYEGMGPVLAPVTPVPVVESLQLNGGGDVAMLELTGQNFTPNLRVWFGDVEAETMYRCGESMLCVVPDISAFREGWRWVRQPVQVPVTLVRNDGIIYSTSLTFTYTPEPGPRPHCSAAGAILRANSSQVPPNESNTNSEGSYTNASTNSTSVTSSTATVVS", "assay": "Notch complex assembly assay (NTC AlphaScreen assay)", "assay_type": "binding", "protocol": "Notch Complex Assembly Assay\nAll recombinant proteins were expressed using baculovirus expression vectors in SF21 cells and purified. Unless otherwise stated, all assays contained 125 fmol of double stranded oligonucleotide, CSL, Notch1 and MAML1 proteins. Reactions were carried out in Tris-buffered saline with 0.1% Tween (“TBS-T”) buffer containing 0.2% bovine serum albumin (“BSA”) and 100 μg/mL salmon sperm DNA. Briefly, the Notch complex was assembled on a biotinylated double stranded (“DS”) oligonucleotide harboring one CSL binding site (5′-[…]-3′). Complex assembly was quantitated using ALPHASCREEN technology (Perkin Elmer). Proteins in the complexes were detected using specific antibodies to either MAML1 (Cell signaling, D3K7B), Notch1 (Abcam, 52627) or CSL (anti-His, Abcam 18184). Streptavidin conjugated […] beads (Perkin Elmer, 6760002) were used to bind the DS oligonucleotide, and Protein-A conjugated […] beads (Perkin Elmer, 6760137) were used to detect antibody-coated proteins. For screening compounds, Notch transcriptional activation complex (“NTC”) components were added to wells that already contained the inhibitor to be assayed and allowed to incubate for 30 minutes. The ALPHASCREEN plate (Perkin Elmer, 6008350) was then read on an Envision Plate reader (Perkin Elmer) as specified by the manufacturer."}, "[4]": {"assay": "Pharmacokinetic study in mouse plasma", "assay_type": "in vivo", "details": "for Cmax: read-out: *C0/Cmax; for bioavailability: mouse", "protocol": "Pharmacokinetic studies were performed as previously described (Astudillo et al. (2016) Cancer Res). The following treatments were administered: NADi-260 via intraperitoneal (i.p.) route at 100 mg/kg, NADI-260 via intravenous route (i.v.) at 2 mg/kg, NADi-351 via i.p. at 10 mg/kg, NADi-351 via […] at 10 mg/kg and NADi-351 via oral route (PO) at 50 mg/kg. Blood samples were collected from each treatment group and their respective control grounds, plasma was separated from blood immediately by centrifugation at 4000 rpm for 10 min at 4° C. and stored below −70° C. until bioanalysis. All samples were processed for analysis by protein precipitation using acetonitrile and analyzed by fit for purpose LC-MS/MS method. Pharmacokinetic parameters were calculated using the non-compartmental analysis module of Phoenix WinNonlin (Version 6.3). Histological Analysis of Mouse Intestine Tissue"}, "[5]": {"system": "Notch target genes", "assay": "Quantitative RT-PCR of Notch target genes in OE33 cells", "assay_type": "cell-based, human", "details": "OE33, 48 h, compared to control (DMSO), normalized to TBP", "protocol": "Quantitative RT-PCR Other Assays\nRNA was isolated from OE33 cells treated with either DMSO (vehicle) or NADi-351 for 48 h, using an RNA purification kit (Qiagen), following the manufacturer's instructions. cDNA was synthesized using the High Capacity cDNA Reverse Transcription kit (Applied Biosystems), according to the manufacturer's instructions. qPCR reactions were carried out in the Bio-Rad CFX96 thermal cycler using Sybr Green Master Mix (Bio-Rad). Gene expression was normalized to housekeeping gene TBP. […]"}, "[6]": {"target": "T2, Notch1 transcriptional complex (Homo sapiens, UniProt P46531)", "T2 construct": "endogenous in cells; host or cells: OE33 cells, nuclear lysate", "T2 sequence (P46531 1754-2555 limits assumed)": "as the sequence (P46531 1754-2555 limits assumed) above", "T2 sequence (Q06330 whole entry partner)": "as the sequence (Q06330 whole entry) above", "assay": "2xCSL DNA affinity precipitation, OE33 nuclear lysate: Notch1", "assay_type": "cell-based", "details": "OE33, 48 hours of treatment", "protocol": "DNA Affinity Purification\nStreptavidin agarose beads (Pierce) were incubated with previously annealed 47-mer biotinylated dsDNA containing two high-affinity CSL binding sites facing forward (2×CSL binding DNA) or 2 mutated CSL binding sites (mut. DNA). Sequences were previously reported by Weaver et al. (2014) Cancer Res. The nuclear lysates of OE33 cell lines were incubated with the DNA streptavidin beads, and bound proteins were analyzed by Western blot. Protein analysis was carried out using conventional SDS-PAGE and transfer techniques. Blots were probed with the indicated antibody (“Ab”), using standard conditions, and detected using enhanced chemiluminescence (“ECL”). The following Ab were used: anti-Notch1^val1744 (4147S, Cell Signaling Technology), anti-Notch2^val1697 (SAB4502022, Sigma-Aldrich), anti-Notch3 (5276S, Cell Signaling), anti-CSL (5313S, Cell signaling), anti-SP1 (5931S, Cell Signaling), and anti-GAPDH (ab9483 Abcam)."}, "[7]": {"assay": "physchem"}, "[8]": {"system": "OE33 cell line (esophageal adenocarcinoma)", "assay": "Tumor sphere viability, MTT assay, OE33", "assay_type": "cell-based, human", "details": "OE33, 72 hours of treatment", "protocol": "FIG. 4A depicts a graph showing the ability of NADi-351 to inhibit the tumor sphere viability of the OE33 cell line (esophageal adenocarcinoma) after 72 hours of treatment using the Methylthiazolyldiphenyl-tetrazolium bromide (“MTT”) assay.\nThe compounds and salts disclosed herein can inhibit the viability of tumor spheres and decrease Notch target gene expression.\nOE33 cells, human esophageal adenocarcinoma cell lines, were obtained from the European Collection of Cell Culture. SUM-149 and SUM-159, breast cancer cell lines, were obtained from Dr. Joyce Slingerland at the University of Miami School of Medicine. The following cell lines were obtained directly from the ATCC: 786-0, a human renal cell adenocarcinoma cell line; HT-1080, a human fibrosarcoma cell line; MCF-7, a mammary gland adenocarcinoma; T47D, a human mammary ductal carcinoma cell line; and H-23 a non-small cell lung adenocarcinoma cell line. All cell lines were propagated in growth media as specified."}, "[9]": {"system": "OE33 cell line (esophageal adenocarcinoma)", "assay": "Colony assay, OE33", "assay_type": "cell-based, human", "details": "OE33, repeat dose every 48 hours for 10 days", "protocol": "Cells were plated into a 6 well plate at a density of 2000 cells/cm^2. Inhibitor treatment commenced 24 hours post seeding, and the media containing inhibitor was changed every 48 hours thereafter. […]"}, "[10]": {"details": "ip, i.p. 10 mg/kg, mouse plasma"}, "[11]": {"details": "iv, i.v. 10 mg/kg, mouse plasma"}, "[12]": {"details": "po, p.o. 50 mg/kg, mouse plasma"}}, "note": "Where two headings read alike, the source gives them in different places."}
{"smiles": "COc1cc(/C(C)=C2\\SC(=S)N(CC(=O)N(C)C)C2=O)cc(F)c1OCc1nnc[nH]1", "note": "[NADi-351, (Z)-2-(5-(1-(4-((1H-1,2,4-triazol-3-yl)methoxy)-3-fluoro-5-methoxyphenyl)ethylidene)-4-oxo-2-thioxothiazolidin-3-yl)-N,N-dimethylacetamide]", "values": [{"measurement": "Percentage (%) Parent Remaining in HLM", "setting": "[1]; incubation time 0 min", "result": 100, "unit": "%"}, {"measurement": "Percentage (%) Parent Remaining in HLM", "setting": "[1]; incubation time 60 min", "result": 86, "unit": "%"}, {"measurement": "GSH ethyl ester conjugation in HLM", "setting": "[1]; within 60 minutes of incubation", "result": "increased stability toward GSH ethyl ester conjugation"}, {"measurement": "AUC(0-t)", "setting": "[2]", "result": 4570, "unit": "ng·h/mL"}, {"measurement": "Cmax", "setting": "[2]; back extrapolated, read-out: *C0/Cmax", "result": 15900, "unit": "ng/mL"}, {"measurement": "IC50", "setting": "[3]; Table E, NTC AlphaScreen assay, read-out: *IC50", "result": 2.4, "unit": "nM"}, {"measurement": "increase in potency over NADi-260", "setting": "[3]; methylated at the alkene vs NADi-260", "result": 10, "unit": "fold"}, {"measurement": "AUC(0-inf)", "setting": "[4]; [10]", "result": 4550, "unit": "ng·h/mL"}, {"measurement": "AUC(0-t)", "setting": "[4]; [10]", "result": 4550, "unit": "ng·h/mL"}, {"measurement": "Tmax", "setting": "[4]; [10]", "result": 15, "unit": "min"}, {"measurement": "Cmax", "setting": "[4]; [10]", "result": 8200, "unit": "ng/mL"}, {"measurement": "AUC(0-inf)", "setting": "[4]; [11]", "result": 4570, "unit": "ng·h/mL"}, {"measurement": "clearance", "setting": "[4]; [11]", "result": 36.5, "unit": "mL/min/kg"}, {"measurement": "half-life", "setting": "[4]; [11]", "result": 87.6, "unit": "min"}, {"measurement": "Vd", "setting": "[4]; iv, i.v. 10 mg/kg, mouse plasma, read-out: Vss", "result": 0.8, "unit": "L/kg"}, {"measurement": "metabolic stability compared with NADi-260", "setting": "[4]; mouse plasma, FIG. 3", "result": "significantly improved metabolic stability"}, {"measurement": "bioavailability", "setting": "[4]; FIG. 3", "result": "excellent bioavailability"}, {"measurement": "bioavailability", "setting": "[4]; plasma, po, p.o. 50 mg/kg, read-out: % F", "result": "> 100", "unit": "%"}, {"measurement": "AUC(0-inf)", "setting": "[4]; [12]", "result": 38000, "unit": "ng·h/mL"}, {"measurement": "AUC(0-t)", "setting": "[4]; [12]", "result": 37900, "unit": "ng·h/mL"}, {"measurement": "Tmax", "setting": "[4]; [12]", "result": 30, "unit": "min"}, {"measurement": "Cmax", "setting": "[4]; [12]", "result": 17500, "unit": "ng/mL"}, {"measurement": "expression of Notch target genes", "setting": "[5]", "result": "decreased the expression of Notch target genes"}, {"measurement": "formation of the Notch1 intracellular domain (N1icd) complex", "setting": "[6]", "result": "inhibited the formation"}, {"measurement": "solubility", "setting": "[7]; pH 1.2, simulated gastric fluid", "result": "158 ± 7.7", "unit": "µM"}, {"measurement": "solubility", "setting": "[7]; pH 6.5, fassif", "result": "150 ± 4.1", "unit": "µM"}, {"measurement": "solubility", "setting": "[7]; pH 7.4, aqueous buffer", "result": "155 ± 9.6", "unit": "µM"}, {"measurement": "decrease of tumor sphere viability", "setting": "[8]", "result": "about 75%"}, {"measurement": "colony formation", "setting": "[9]", "result": "decreased colony formation"}]}
